Reference: PubChem BioAssay AID330 (DTP/NCI, 2004)
Where “and” joins values, the source holds several entries; their conditions need not be identical. Equal values may be shown once. Inconclusive results and toxic doses are left out. How the source made its calls: active means survival T/C of 150% or more; inactive means T/C below 125% in these data. Peptide text beside a SMILES is read from it.

System: P388 leukemia ip, CD2F1 mice, survival T/C
Experiment: NCI In Vivo Anticancer Drug Screen. Data for tumor model P388 Leukemia (intraperitoneal) in CD2F1 (CDF1) mice
Details: endpoint: median survival time, higher = longer survival
Outline: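 Mice carrying the transplanted tumor received test compound or vehicle. Survival was recorded in each group, and the value is the treated-group measurement divided by that of the vehicle-treated control group.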

[1] = dose: 50.0 mg/kg/injection, schedule: Q01DX005 (ip), vehicle: Klucel (hydroxypropylcellulose) (HPC)
[2] = dose: 100.0 mg/kg/injection, schedule: Q01DX005 (ip), vehicle: Klucel (hydroxypropylcellulose) (HPC)
[3] = dose: 200.0 mg/kg/injection, schedule: Q01DX005 (ip), vehicle: Klucel (hydroxypropylcellulose) (HPC)
[4] = dose: 50.0 mg/kg/injection, schedule: Q01DX009 (ip), vehicle: saline
[5] = dose: 100.0 mg/kg/injection, schedule: Q01DX009 (ip), vehicle: saline
[6] = dose: 50.0 mg/kg/injection, schedule: Q04DX003 (ip), vehicle: saline with Tween-80
[7] = dose: 100.0 mg/kg/injection, schedule: Q04DX003 (ip), vehicle: saline with Tween-80
[8] = dose: 12.5 mg/kg/injection, schedule: Q01DX009 (ip), vehicle: saline with Tween-80
[9] = dose: 25.0 mg/kg/injection, schedule: Q01DX009 (ip), vehicle: saline with Tween-80
[10] = dose: 50.0 mg/kg/injection, schedule: Q01DX009 (ip), vehicle: saline with Tween-80
[11] = dose: 100.0 mg/kg/injection, schedule: Q01DX009 (ip), vehicle: saline with Tween-80
[12] = dose: 200.0 mg/kg/injection, schedule: Q01DX009 (ip), vehicle: saline with Tween-80
[13] = dose: 25.0 mg/kg/injection, schedule: Q01DX005 (ip), vehicle: Klucel (hydroxypropylcellulose) (HPC)
[14] = dose: 60.0 mg/kg/injection, schedule: Q01DX005 (ip), vehicle: Klucel (hydroxypropylcellulose) (HPC)
[15] = dose: 120.0 mg/kg/injection, schedule: Q01DX005 (ip), vehicle: Klucel (hydroxypropylcellulose) (HPC)
[16] = dose: 50.0 mg/kg/injection, schedule: Q01DX009 (ip), vehicle: Klucel (hydroxypropylcellulose) (HPC)
[17] = dose: 100.0 mg/kg/injection, schedule: Q01DX009 (ip), vehicle: Klucel (hydroxypropylcellulose) (HPC)
[18] = dose: 200.0 mg/kg/injection, schedule: Q01DX009 (ip), vehicle: Klucel (hydroxypropylcellulose) (HPC)

Measured: T/C

O=[N+]([O-])c1ccccc1/C=C\c1ccccn1
inactive: [1] 104 % of control | [2] 101 % of control | [3] 101 % of control

CCN(CC)CCO/N=c1\nc(-c2ccccc2)c2cc(Cl)ccc2s1
inactive: [4] 100 % of control | [5] 103 % of control | dose: 200.0 mg/kg/injection, schedule: Q01DX009 (ip), vehicle: saline 104 % of control

ClC=P(c1ccccc1)(c1ccccc1)c1ccccc1
inactive: [6] 104 % of control | [7] 109 % of control | dose: 200.0 mg/kg/injection, schedule: Q04DX003 (ip), vehicle: saline with Tween-80 104 % of control

O=C(O/N=C1\C2CCC(C2)C1Cl)c1ccc([N+](=O)[O-])cc1 (stereo not given)
inactive: [8] 118 % of control | [9] 122 % of control | [10] 104 % of control

Cc1cc(N)c([N+](=O)[O-])cc1C
inactive: [10] 101 % of control | [11] 100 % of control | [12] 96 % of control | dose: 400.0 mg/kg/injection, schedule: Q01DX009 (ip), vehicle: saline with Tween-80 95 % of control

CC(C)c1cc2c(cc1O)C(O)C1(O)CCCC(C)(C)[C@H]1CC2 (stereo not given in full)
inactive: dose: 7.5 mg/kg/injection, schedule: Q01DX005 (ip), vehicle: other 104 % of control | dose: 15.0 mg/kg/injection, schedule: Q01DX005 (ip), vehicle: other 100 % of control | dose: 30.0 mg/kg/injection, schedule: Q01DX005 (ip), vehicle: other 86 % of control | dose: 60.0 mg/kg/injection, schedule: Q01DX005 (ip), vehicle: other 94 % of control

Clc1cccc2c(-c3ccccc3)c3cccc(Cl)c3cc12
inactive: [10] 101 % of control | [11] 97 % of control | [12] 96 % of control

CN1CCC(COC(=O)CC(C)(C)C)C1 (stereo not given)
inactive: dose: 3.13 mg/kg/injection, schedule: Q01DX009 (ip), vehicle: water 105 % of control | dose: 6.25 mg/kg/injection, schedule: Q01DX009 (ip), vehicle: water 100 % of control | dose: 12.5 mg/kg/injection, schedule: Q01DX009 (ip), vehicle: water 99 % of control | dose: 25.0 mg/kg/injection, schedule: Q01DX009 (ip), vehicle: water 101 % of control | dose: 50.0 mg/kg/injection, schedule: Q01DX009 (ip), vehicle: water 105 % of control | dose: 100.0 mg/kg/injection, schedule: Q01DX009 (ip), vehicle: water 101 % of control

CC(=O)OCC1OC(OC(C)=O)C(NC(=O)CN(Cc2ccccc2)S(C)(=O)=O)C(OC(C)=O)C1OC(C)=O (stereo not given)
inactive: dose: 12.5 mg/kg/injection, schedule: Q01DX009 (ip), vehicle: other 91 % of control | dose: 25.0 mg/kg/injection, schedule: Q01DX009 (ip), vehicle: other 99 % of control | dose: 50.0 mg/kg/injection, schedule: Q01DX009 (ip), vehicle: other 96 % of control | dose: 100.0 mg/kg/injection, schedule: Q01DX009 (ip), vehicle: other 93 % of control | dose: 200.0 mg/kg/injection, schedule: Q01DX009 (ip), vehicle: other 105 % of control

CCCCCCCCCCCCCCCCS.[Ge]
inactive: [8] 106 % of control | [9] 98 % of control | [10] 104 % of control

O=C(O)C1CCN1C1CCCCC1 (stereo not given)
inactive: dose: 100.0 mg/kg/injection, schedule: Q01DX009 (ip), vehicle: saline sonified 90 % of control | dose: 200.0 mg/kg/injection, schedule: Q01DX009 (ip), vehicle: saline sonified 100 % of control | dose: 400.0 mg/kg/injection, schedule: Q01DX009 (ip), vehicle: saline sonified 104 % of control

CC(=O)N(C(C)=O)N(C(C)=O)c1cc2ccccc2cn1
inactive: dose: 50.0 mg/kg/injection, schedule: Q01DX005 (ip), vehicle: saline with Tween-80 88 % of control | dose: 100.0 mg/kg/injection, schedule: Q01DX005 (ip), vehicle: saline with Tween-80 91 % of control

Nc1cccc(NCc2ccncc2)n1
inactive: dose: 6.25 mg/kg/injection, schedule: Q01DX005 (ip), vehicle: Klucel (hydroxypropylcellulose) (HPC) 98 % of control and 99 % of control and 100 % of control | dose: 12.5 mg/kg/injection, schedule: Q01DX005 (ip), vehicle: Klucel (hydroxypropylcellulose) (HPC) 100 % of control and 101 % of control and 94 % of control | [13] 100 % of control (2×) and 96 % of control | [2] 113 % of control

O=C(/C=C/c1ccco1)c1ccc(O)c(C(=O)O)c1
inactive: [9] 99 % of control | [10] 105 % of control | [11] 102 % of control

COC(=O)C1(N2CCOCC2)CCC([C@@H](c2ccccc2)C(C)[N+](=O)[O-])C1 (stereo not given in full)
inactive: [14] 100 % of control | [15] 98 % of control | dose: 240.0 mg/kg/injection, schedule: Q01DX005 (ip), vehicle: Klucel (hydroxypropylcellulose) (HPC) 99 % of control

COc1cc(OC)c(C(=O)CCl)c(O)c1Cl
inactive: [9] 113 % of control | dose: 66.0 mg/kg/injection, schedule: Q01DX009 (ip), vehicle: saline with Tween-80 110 % of control

NC(CCC(=O)O)C(=O)NC(Cc1c[nH]c2ccccc12)C(=O)NC(CCC(=O)O)C(=O)O (stereo not drawn) (H-Glu-Trp-Glu-OH; configuration not given here)
inactive: dose: 50.0 mg/kg/injection, schedule: Q01DX005 (ip), vehicle: saline 93 % of control | dose: 100.0 mg/kg/injection, schedule: Q01DX005 (ip), vehicle: saline 104 % of control | dose: 200.0 mg/kg/injection, schedule: Q01DX005 (ip), vehicle: saline 105 % of control

Nc1ccccc1N1C(c2ccccc2)=CC(=O)N2CCN=C21
inactive: [16] 90 % of control | [17] 101 % of control | [18] 95 % of control

COC(=O)C(CCSC)NC(=O)C(Cc1c[nH]c2ccccc12)NC(=O)OC(C)(C)C (stereo not given)
inactive: [16] 86 % of control | [17] 97 % of control | [18] 106 % of control

CC(C)=C/C(C)=N/NC(N)=O
inactive: dose: 12.5 mg/kg/injection, schedule: Q04DX003 (ip), vehicle: saline with Tween-80 98 % of control | dose: 25.0 mg/kg/injection, schedule: Q04DX003 (ip), vehicle: saline with Tween-80 94 % of control | [6] 91 % of control | [7] 94 % of control

C[C@H]1CN[C@@H]2[C@@H](C)[C@H]3[C@@H](C[C@H]4[C@@H]5CC[C@H]6C[C@@H](N)CC[C@]6(C)[C@H]5CC[C@]34C)O[C@@]2(O)C1
inactive: dose: 3.12 mg/kg/injection, schedule: Q01DX009 (ip), vehicle: saline 103 % of control | dose: 6.25 mg/kg/injection, schedule: Q01DX009 (ip), vehicle: saline 94 % of control | dose: 12.5 mg/kg/injection, schedule: Q01DX009 (ip), vehicle: saline 100 % of control | dose: 25.0 mg/kg/injection, schedule: Q01DX009 (ip), vehicle: saline 98 % of control

CCN(CC)CCOc1cccc2c1C(=O)c1ccccc1C2=O
inactive: [4] 105 % of control and 98 % of control | [5] 106 % of control

CC1=CCC2(C)C(=O)CC3(C)C(CCC4C5(C)CCC(=O)C(C)(C)C5CCC43C)C2C1C (stereo not given)
inactive: dose: 1.75 mg/kg/injection, schedule: Q01DX009 (ip), vehicle: saline 103 % of control and 121 % of control | dose: 3.5 mg/kg/injection, schedule: Q01DX009 (ip), vehicle: saline 99 % of control and 114 % of control | dose: 7.0 mg/kg/injection, schedule: Q01DX009 (ip), vehicle: saline 110 % of control and 118 % of control

O=P(O)(O)SP(=O)(O)O.[Ni]
inactive: dose: 12.5 mg/kg/injection, schedule: Q01DX001 (ip), vehicle: suspension in saline 102 % of control and 94 % of control | dose: 25.0 mg/kg/injection, schedule: Q01DX001 (ip), vehicle: suspension in saline 99 % of control and 94 % of control | dose: 50.0 mg/kg/injection, schedule: Q01DX001 (ip), vehicle: suspension in saline 122 % of control

CCN1CCC(O)(/C=C/c2ccccc2)C(C(=O)/C=C/c2ccccc2)C1 (stereo not given)
inactive: [14] 108 % of control | [15] 111 % of control

C=C1CCC2C(C)(CO)C(O)CCC2(C)C1C/C=C1\C(=O)OCC1O (stereo not given)
inactive: [13] 109 % of control | [1] 108 % of control | [2] 114 % of control | [3] 117 % of control
